Data reported in PubChem BioAssay (NCI).
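These data come from cells grown in 96-well plates and exposed to compound for 48 hours at five concentrations. TGI marks complete inhibition of growth.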

What was measured:
Experiment in all cases: NCI tumour cell line growth inhibition, 48 h
[1] = system: HS 578T breast
[2] = system: SK-OV-3 ovarian
[3] = system: SF-295 CNS
[4] = system: A549 NSCLC
[5] = system: T-47D breast
[6] = system: SNB-75 CNS
[7] = system: CCRF-CEM leukemia
[8] = system: MDA-N
[9] = system: HOP-62 NSCLC
[10] = system: SK-MEL-28 melanoma
[11] = system: K-562 leukemia
[12] = system: KM12 colon
[13] = system: TK-10 renal
[14] = system: SK-MEL-5 melanoma
[15] = system: LOX IMVI melanoma
[16] = system: COLO 205 colon
[17] = system: UO-31 renal
[18] = system: MOLT-4 leukemia
[19] = system: CAKI-1 renal
[20] = system: RXF 393 renal
[21] = system: OVCAR-8 ovarian
[22] = system: NCI/ADR-RES ovarian
[23] = system: RPMI-8226 leukemia
[24] = system: IGROV1 ovarian
[25] = system: NCI-H226 lung
[26] = system: ACHN renal
[27] = system: OVCAR-4 ovarian
[28] = system: NCI-H522 lung
[29] = system: SN12C renal
[30] = system: M14 melanoma
[31] = system: SF-539 CNS
[32] = system: MDA-MB-231 breast
[33] = system: MCF7 breast
[34] = system: HCC-2998 colon
[35] = system: HT29 colon
[36] = system: MALME-3M melanoma
[37] = system: DU-145 prostate
[38] = system: OVCAR-3 ovarian
[39] = system: NCI-H23 lung
[40] = system: 786-0 renal
[41] = system: BT-549 breast
[42] = system: SF-268 CNS
[43] = system: HL-60(TB) leukemia
[44] = system: UACC-62 melanoma
[45] = system: U251 CNS
[46] = system: A498 renal
[47] = system: SK-MEL-2 melanoma
[48] = system: SW-620 colon
[49] = system: OVCAR-5 ovarian
[50] = system: NCI-H460 lung
[51] = system: UACC-257 melanoma
[52] = system: HCT-116 colon
[53] = system: MDA-MB-435
[54] = system: EKVX NSCLC
[55] = system: PC-3 prostate
[56] = system: HCT-15 colon
[57] = system: SNB-19 CNS
[58] = system: HOP-92 NSCLC

Cc1ccc(C(=O)Nc2ccc(CP(=O)(O)O)cc2CP(=O)(O)O)cc1NC(=O)c1cccc(NC(=O)Nc2cccc(C(=O)Nc3cc(C(=O)Nc4ccc(CP(=O)(O)O)cc4CP(=O)(O)O)ccc3C)c2)c1
TGI [1]: > 100 µM | TGI [2]: > 100 µM | TGI [3]: > 100 µM | TGI [4]: > 100 µM | TGI [5]: > 100 µM | TGI [6]: > 100 µM | TGI [7]: > 100 µM | TGI [8]: > 100 µM | TGI [9]: > 100 µM | TGI [10]: > 100 µM | TGI [11]: > 100 µM | TGI [12]: > 100 µM | TGI [13]: > 100 µM | TGI [14]: > 100 µM | TGI [15]: > 100 µM | TGI [16]: > 100 µM | TGI [17]: > 100 µM | TGI [18]: > 100 µM | TGI [19]: > 100 µM | TGI [20]: > 100 µM | TGI [21]: > 100 µM | TGI [22]: > 100 µM | TGI [23]: > 100 µM | TGI [24]: > 100 µM | TGI [25]: > 100 µM | TGI [26]: > 100 µM | TGI [27]: > 100 µM | TGI [28]: > 100 µM | TGI [29]: > 100 µM | TGI [30]: > 100 µM | TGI [31]: > 100 µM | TGI [32]: > 100 µM | TGI [33]: > 100 µM | TGI [34]: > 100 µM | TGI [35]: > 100 µM | TGI [36]: > 100 µM | TGI [37]: > 100 µM | TGI [38]: > 100 µM | TGI [39]: > 100 µM | TGI [40]: > 100 µM | TGI [41]: > 100 µM | TGI [42]: > 100 µM | TGI [43]: > 100 µM | TGI [44]: > 100 µM | TGI [45]: > 100 µM | TGI [46]: > 100 µM | TGI [47]: > 100 µM | TGI [48]: > 100 µM | TGI [49]: > 100 µM | TGI [50]: > 100 µM | TGI [51]: > 100 µM | TGI [52]: > 100 µM | TGI [53]: > 100 µM | TGI [54]: > 100 µM | TGI [55]: > 100 µM | TGI [56]: > 100 µM

N#Cc1cc(-c2nc3c(F)cccc3s2)ccc1N
TGI [1]: > 100 µM | TGI [2]: > 100 µM | TGI [3]: > 100 µM | TGI [4]: > 100 µM | TGI [5]: > 100 µM | TGI [6]: > 100 µM | TGI [7]: > 100 µM | TGI [8]: > 100 µM | TGI [9]: > 100 µM | TGI [11]: > 100 µM | TGI [12]: > 100 µM | TGI [13]: > 100 µM | TGI [14]: > 100 µM | TGI [15]: > 100 µM | TGI [16]: > 100 µM | TGI [17]: > 100 µM | TGI [18]: > 100 µM | TGI [19]: > 100 µM | TGI [20]: > 100 µM | TGI [21]: > 100 µM | TGI [22]: > 100 µM | TGI [23]: > 100 µM | TGI [57]: > 100 µM | TGI [24]: > 100 µM | TGI [25]: > 100 µM | TGI [26]: > 100 µM | TGI [27]: > 100 µM | TGI [28]: > 100 µM | TGI [29]: > 100 µM | TGI [30]: > 100 µM | TGI [31]: > 100 µM | TGI [32]: > 100 µM | TGI [33]: 4.06 µM | TGI [35]: > 100 µM | TGI [36]: > 100 µM | TGI [37]: > 100 µM | TGI [38]: > 100 µM | TGI [39]: > 100 µM | TGI [40]: > 100 µM | TGI [41]: > 100 µM | TGI [42]: > 100 µM | TGI [43]: > 100 µM | TGI [44]: > 100 µM | TGI [45]: > 100 µM | TGI [58]: > 100 µM | TGI [46]: > 100 µM | TGI [48]: > 100 µM | TGI [49]: > 100 µM | TGI [50]: > 100 µM | TGI [51]: > 100 µM | TGI [52]: > 100 µM | TGI [53]: > 100 µM | TGI [54]: 0.894 µM | TGI [55]: > 100 µM | TGI [56]: > 100 µM
